Test results from patent US20240158446A1, “CYCLIC COMPOUND HAVING SELECTIVE INHIBITORY ACTION ON KRAS OVER HRAS AND NRAS” (CHUGAI SEIYAKU KABUSHIKI KAISHA, priority 2021, published 2024).
pKd: −log10 of the molar value. Read-outs that look alike come from different tables or passages of the source. Where a SMILES comes first, the peptide text is derived from it. Bridges are numbered along the chain shown (N, C = ends). [ ]: non-standard residue; d: D form. The star is where a group is joined. hPhe(3-Cl-4-CF3) = N[C@@H](CCc1ccc(C(F)(F)F)c(Cl)c1)C(=O)O; NPrPhe(4-CF3) = CCCN[C@@H](Cc1ccc(C(F)(F)F)cc1)C(=O)O; NMeGly(cPent) = CN[C@H](C(=O)O)C1CCCC1; NMeD = CN[C@@H](CC(=O)O)C(=O)O; NMeL = CN[C@@H](CC(C)C)C(=O)O; Morpholide = C1CN(*)CCO1; Ac5c = NC1(C(=O)O)CCCC1; Aze = O=C(O)[C@@H]1CCN1; Ac4c = NC1(C(=O)O)CCC1; NEtG = CCNCC(=O)O; Sar = CNCC(=O)O

Legend:
[1] = molecular target: GDP-bound KRAS wild-type protein (Homo sapiens, UniProt P01116); assay: Binding to KRAS by surface plasmon resonance (SPR), Single Cycle Kinetics; details: GDP-bound KRAS wild-type protein, read-out: KRAS KD
[2] = molecular target: GDP-bound NRAS wild-type protein (Homo sapiens, UniProt P01111); assay: Binding to NRAS by surface plasmon resonance (SPR), Single Cycle Kinetics; details: for NRAS/KRAS (ratio of KD value for NRAS to KD value for KRAS) / NRAS/KRAS (ratio of KD value with respect to NRAS to KD value with respect to KRAS): SPR, GDP-bound NRAS wild-type protein vs GDP-bound KRAS wild-type protein; for NRAS/KRAS (ratio of KD value with respect to GDP-bound NRAS wild-type protein to KD value with respect to KRAS): SPR KD ratio NRAS/KRAS, class symbols
[3] = molecular target: GDP-bound HRAS wild-type protein (Homo sapiens, UniProt P01112); assay: Binding to HRAS by surface plasmon resonance (SPR), Single Cycle Kinetics; details: for HRAS/KRAS (ratio of KD value for HRAS to KD value for KRAS) / HRAS/KRAS (ratio of KD value with respect to HRAS to KD value with respect to KRAS): SPR, GDP-bound HRAS wild-type protein vs GDP-bound KRAS wild-type protein; for HRAS/KRAS (ratio of KD value with respect to GDP-bound HRAS wild-type protein to KD value with respect to KRAS): SPR KD ratio HRAS/KRAS, class symbols
[4] = SPR Single Cycle Kinetics, 1:1 binding model

Chain of GDP-bound KRAS wild-type protein (P01116 whole entry): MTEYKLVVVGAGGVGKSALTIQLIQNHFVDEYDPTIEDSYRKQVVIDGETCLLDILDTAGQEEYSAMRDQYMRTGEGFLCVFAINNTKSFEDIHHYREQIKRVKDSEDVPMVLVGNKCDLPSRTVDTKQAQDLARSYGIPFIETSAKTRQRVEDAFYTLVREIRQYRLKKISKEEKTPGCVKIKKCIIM
Chain of GDP-bound NRAS wild-type protein (P01111 whole entry): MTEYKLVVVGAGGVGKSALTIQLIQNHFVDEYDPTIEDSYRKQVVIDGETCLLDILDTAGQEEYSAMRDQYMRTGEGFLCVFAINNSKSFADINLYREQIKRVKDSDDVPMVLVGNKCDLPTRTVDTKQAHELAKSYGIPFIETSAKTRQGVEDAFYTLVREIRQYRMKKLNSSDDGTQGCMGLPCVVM
Chain of GDP-bound HRAS wild-type protein (P01112 whole entry): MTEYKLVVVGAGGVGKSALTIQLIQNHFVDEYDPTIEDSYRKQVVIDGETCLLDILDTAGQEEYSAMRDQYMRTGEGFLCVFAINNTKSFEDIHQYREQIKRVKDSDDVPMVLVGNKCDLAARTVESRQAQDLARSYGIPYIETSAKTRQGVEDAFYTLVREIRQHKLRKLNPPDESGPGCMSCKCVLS

Row | SMILES | NRAS/KRAS (ratio of KD value for NRAS to KD value for KRAS) [2] | HRAS/KRAS (ratio of KD value for HRAS to KD value for KRAS) [3] | pKd [1, 4] | NRAS/KRAS (ratio of KD value with respect to GDP-bound NRAS wild-type protein to KD value with respect to KRAS) [2] | HRAS/KRAS (ratio of KD value with respect to GDP-bound HRAS wild-type protein to KD value with respect to KRAS) [3] | other results
1 | CCO[C@@H]1C[C@H]2C(=O)NC3(CCC3)C(=O)N(C)[C@@H](C3CCCC3)C(=O)N(C)[C@H](C(=O)N(C)CCOC)CC(=O)N(C)[C@@H](CC(C)C)C(=O)N[C@@H]([C@@H](C)CC)C(=O)N(C)CC(=O)N(C)[C@H]3C/C=C\CCN(C3=O)[C@@H](Cc3ccc(C(F)(F)F)cc3)C(=O)N(C)CC(=O)N[C@@H](CCc3ccc(C(F)(F)F)c(OC)c3)C(=O)N2C1 [PP1324, (2S,8S,12R,14S,20S,23S,27S,30S,36S,38Z)-20-cyclopentyl-12-ethoxy-27-isobutyl-N-(2-methoxyethyl)-8-[2-[3-methoxy-4-(trifluoromethyl)phenyl]ethyl]-N,4,19,22,26,32,35-heptamethyl-30-[(1S)-1-methylpropyl]-3,6,9,15,18,21,25,28,31,34,42-undecaoxo-2-[[4-(trifluoromethyl)phenyl]methyl]spiro[1,4,7,10,16,19,22,26,29,32,35-undecazatricyclo[34.5.1.0^10,14]dotetracont-38-ene-17,1′-cyclobutane]-23-carboxamide] | – | – | – | – | – | pKd ([1]; SPR, Single Cycle Kinetics, 1:1 binding model): 10.03; NRAS/KRAS (ratio of KD value for NRAS to KD value for KRAS) ([2]; KD ratio class): A (a compound having 10 or more and less than 20 is denoted as A); HRAS/KRAS (ratio of KD value for HRAS to KD value for KRAS) ([3]; KD ratio class): A (a compound having 10 or more and less than 20 is denoted as A)
2 | CCCO[C@@H]1C[C@H]2C(=O)NC3(CCC3)C(=O)N(C)[C@@H](C3CCCC3)C(=O)N(C)[C@H](C(=O)N3CCOCC3)CC(=O)N(C)[C@@H](CC(C)C)C(=O)N[C@@H]([C@@H](C)CC)C(=O)N(C)CC(=O)N(C)[C@H]3CCCCCN(C3=O)[C@@H](Cc3ccc(C(F)(F)F)cc3)C(=O)N(C)CC(=O)N[C@@H](CCc3cc(F)c(C(F)(F)F)c(F)c3)C(=O)N2C1 [PP1161] | B (a compound having 3 or more and less than 10 is denoted as B) | B (a compound having 3 or more and less than 10 is denoted as B) | – | – | – | pKd ([1]; SPR, Single Cycle Kinetics): 9.22
3 | CCCN1C(=O)[C@@H]2CCN2C(=O)CN(C)C(=O)[C@H]([C@@H](C)CC)NC(=O)[C@H](CC(C)C)N(C)C(=O)C[C@@H](C(=O)N2CCOCC2)NC(=O)[C@H](C2CCCC2)N(C)C(=O)C2(CCCC2)NC(=O)[C@@H]2CCCN2C(=O)[C@H](CCc2ccc(C(F)(F)F)c(Cl)c2)NC(=O)CN(C)C(=O)[C@@H]1Cc1ccc(C(F)(F)F)cc1 [PP0349] ([NMeL]I[Sar][Aze][NPrPhe(4-CF3)][Sar][hPhe(3-Cl-4-CF3)]P[Ac5c][NMeGly(cPent)]D-Morpholide; lactam N-11) | C (A compound having a KD ratio of 0.1 or more and less than 3 is denoted as C) | B (a compound having 3 or more and less than 10 is denoted as B) | 9.14 | – | – | –
4 | CCCN1C(=O)CN(C)C(=O)CN(CC)C(=O)[C@H]([C@@H](C)CC)NC(=O)[C@H](CC(C)C)N(C)C(=O)C[C@@H](C(=O)N(C)C)N(C)C(=O)[C@H](C2CCCC2)N(C)C(=O)C2(CCC2)NC(=O)[C@@H]2CCCN2C(=O)[C@H](CCc2ccc(C(F)(F)F)c(Cl)c2)NC(=O)CN(C)C(=O)[C@@H]1Cc1ccc(C(F)(F)F)cc1 [PP0424] ([NMeL]I[NEtG][Sar][NPrPhe(4-CF3)][Sar][hPhe(3-Cl-4-CF3)]P[Ac4c][NMeGly(cPent)][NMeD]-NMe2; lactam N-11) | – | – | 9.77 | – | – | NRAS/KRAS (ratio of KD value with respect to NRAS to KD value with respect to KRAS) [2]: B (a compound having 3 or more and less than 10 is denoted as B); HRAS/KRAS (ratio of KD value with respect to HRAS to KD value with respect to KRAS) [3]: C (A compound having a KD ratio of 0.1 or more and less than 3 is denoted as C)
5 | CCC[C@H]1C(=O)N[C@@H]([C@@H](C)CC)C(=O)N(C)CC(=O)N(C)[C@H]2C/C=C\CCN(C2=O)[C@@H](Cc2ccc(C(F)(F)F)cc2)C(=O)N(C)CC(=O)N[C@@H](CCc2ccc(Cl)c(Cl)c2)C(=O)N2CCOC[C@H]2C(=O)NC2(CC(C)(C)C2)C(=O)N(C)[C@@H](C(CC)CC)C(=O)N(C)[C@H](C(=O)N(C)C)CC(=O)N1C [PP2920] | – | – | 8.40 | AA (a compound having 20 or more is denoted as AA) | A (a compound having 10 or more and less than 20 is denoted as A) | –
6 | CCO[C@@H]1C[C@H]2C(=O)NC3(CCCC3)C(=O)N(C)[C@@H](C3CCCC3)C(=O)N(C)[C@H](C(=O)N3CCOCC3)CC(=O)N(C)[C@@H](CC(C)C)C(=O)N[C@@H]([C@@H](C)CC)C(=O)N(C)CC(=O)N(C)[C@H]3CC(C)=CCN(C3=O)[C@@H](Cc3ccc(C(F)(F)F)cc3)C(=O)N(C)CC(=O)N[C@@H](CCc3cc(F)c(C(F)(F)F)c(F)c3)C(=O)N2C1 [PP1038] | C (A compound having a KD ratio of 0.1 or more and less than 3 is denoted as C) | C (A compound having a KD ratio of 0.1 or more and less than 3 is denoted as C) | – | – | – | pKd ([1]; SPR, Single Cycle Kinetics): 8.52
7 | CC[C@H](C)[C@@H]1NC(=O)[C@H](CC)N(C)C(=O)C[C@@H](C(=O)N(C)C)N(C)C(=O)[C@H](C2CCCC2)N(C)C(=O)C2(CCC2)NC(=O)[C@@H]2CCCCN2C(=O)[C@H](CCc2cc(F)c(C(F)(F)F)c(F)c2)NC(=O)CN(C)C(=O)[C@H](Cc2ccc(C(F)(F)F)cc2)N2CCCCC[C@@H](C2=O)N(C)C(=O)CN(C)C1=O [PP0655] | – | – | 8.72 | – | – | NRAS/KRAS (ratio of KD value with respect to NRAS to KD value with respect to KRAS) [2]: B (a compound having 3 or more and less than 10 is denoted as B); HRAS/KRAS (ratio of KD value with respect to HRAS to KD value with respect to KRAS) [3]: B (a compound having 3 or more and less than 10 is denoted as B)
8 | CCO[C@@H]1C[C@H]2C(=O)NC3(CC(C)(C)C3)C(=O)N(C)[C@@H](C3CCCC3)C(=O)N(C)[C@H](C(=O)N(C)CC)CC(=O)N(C)[C@@H](COC)C(=O)N[C@@H]([C@@H](C)CC)C(=O)N(C)CC(=O)N(C)[C@H]3C/C=C\CCN(C3=O)[C@@H](Cc3ccc(C(F)(F)F)cc3)C(=O)N(C)CC(=O)N[C@@H](CCc3ccc(C(F)(F)F)c(Cl)c3)C(=O)N2C1 [PP2836] | – | – | 10.19 | A (a compound having 10 or more and less than 20 is denoted as A) | A (a compound having 10 or more and less than 20 is denoted as A) | –
9 | CCCC[C@H]1C(=O)N[C@@H]([C@@H](C)CC)C(=O)N(C)CC(=O)N(C)[C@H]2C/C=C\CCN(C2=O)[C@@H](Cc2ccc(C(F)(F)F)cc2)C(=O)N(C)CC(=O)N[C@@H](CCc2ccc(C(F)(F)F)c(OC)c2)C(=O)N2C[C@H](OCC)C[C@H]2C(=O)NC2(CCC2)C(=O)N(C)[C@@H](C2CCCC2)C(=O)N(C)[C@H](C(=O)N(C)CC)CC(=O)N1C [PP2840] | – | – | 10.00 | A (a compound having 10 or more and less than 20 is denoted as A) | A (a compound having 10 or more and less than 20 is denoted as A) | –
10 | CCC(CC)[C@H]1C(=O)N(C)[C@H](C(=O)N(C)C)CC(=O)N(C)[C@@H](COC)C(=O)N[C@@H]([C@@H](C)CC)C(=O)N(C)CC(=O)N(C)[C@H]2C/C=C\CCN(C2=O)[C@@H](Cc2ccc(C(F)(F)F)cc2)C(=O)N(C)CC(=O)N[C@@H](CCc2ccc(Cl)c(Cl)c2)C(=O)N2CCOC[C@H]2C(=O)NC2(CC(C)(C)C2)C(=O)N1C [PP2941] | – | – | 8.60 | AA (a compound having 20 or more is denoted as AA) | A (a compound having 10 or more and less than 20 is denoted as A) | –
